Tested on: patients with presumed NASH and type 2 diabetes
Test: Phase 2 randomized placebo-controlled trial, 18 weeks: liver fat content (MRI-PDFF), glycemic control, liver enzymes, lipids, body weight, fibrosis markers
Format: in vivo, human
Conditions: for Proportion achieving ≥ 30% relative reduction in LFC (subjects/total): placebo 7/33; for Proportion achieving ≥ 5% Absolute Reduction in LFC (subjects/total): placebo 8/33; for Proportion achieving ≥ 30% relative reduction in LFC (percent): placebo 21%; for Proportion achieving ≥ 5% Absolute Reduction in LFC (percent): placebo 24%; for decrease in mean HbA1c level: placebo increase of 0.1%
Description: The aim of this study was to determine the effect of two different doses of BUDCA on liver fat content (LFC) in patients with diabetes and presumed NASH when administered for 18 weeks. This phase 2 clinical trial tested the effect of BUDCA in patients with fatty liver disease and diabetes. The group taking the higher dose of this new drug had significant reductions in the amount of fat in their liver as well as improvement in their diabetes.
A prospective, randomized, placebo-controlled trial of two doses of BUDCA administered orally was conducted in a cohort of 100 subjects with fatty liver disease and diabetes. Treatment was for 18 weeks and endpoints measured included reduction in liver fat content measured by […] proton density fat fraction, improvement in glycemic control, changes in liver-associated enzymes, safety and tolerability.
Patients with diabetes and presumed NASH were randomized into one of three treatment groups, as follows: 1) BUDCA 500 mg BID 2) 1,000 mg BID and 3) matching placebo. Presumed NASH was defined based largely on magnetic resonance imaging derived proton density fat fraction (MRI-PDFF) of 10% or more. Additional inclusion criteria further enriched the study population for having NASH by virtue of requiring corrected T1 (cT1) of more than 830 milliseconds and elevated serum aspartate aminotransferase (AST)≥20 units per liter (6). Subjects had to be overweight or obese with body mass index of 25 kg/m^2 or more.
Study subjects underwent an initial screening evaluation, including measurement of LFC by MRI-PDFF. Subjects were excluded if they had known liver disease other than fatty liver disease or a history of excessive alcohol consumption. Although liver biopsies were not done as a part of this study, subjects with clear evidence of cirrhosis were excluded, based upon a platelet count of less than 150,000/mm^3, serum albumin levels less than […] or a current or previous history of clinical hepatic decompensation.
Those who were deemed eligible were then randomized into one of the three treatment groups described above and underwent a further baseline evaluation at the time of randomization and initial dosing. Subjects were permitted to continue their current treatment regimen for diabetes provided they had been on a stable dose regimen for at least 90 days.
LFC was measured at baseline and after 18 weeks of therapy. In addition, changes in liver chemistry tests, measures of glycemic control and serum lipid levels were also assessed during and at the end of treatment.
Descriptive Statistics were used to summarize continuous data, and frequencies and percentages were used to summarize categorical data. The Safety Set consisted of all subjects who received at least one dose of study treatment. The Modified Efficacy Set is a subset of the Safety Set consisting of subjects that had at least one post-dose MRI-PDFF assessment. […] The primary endpoint was an absolute change from Baseline to Week 18 (or ET) in Liver Fat Content. Primary Endpoint summary measures were provided in both the Efficacy and Modified Efficacy sets, with the Efficacy Set prespecified as the primary analysis set. All other endpoints were prespecified to use the Modified Efficacy Set. Comparisons between active treatment groups relative to placebo were tested using Analysis of Covariance (ANCOVA) with treatment group as a fixed effect and baseline value of the parameters of interest as covariates. ANCOVA based LS Means and raw means have been reported. For statistical analysis of laboratory parameters (i.e. P-values), multiple imputation was used to take missing data into account. A two-sided alpha level of 0.05 without adjustment for multiple tests was used to indicate statistical significance. Analyses were performed using SAS System version 9.4.
Effects of treatment with BUDCA on AST to Platelet Ratio Index (APRI) and Fibrosis-4 (FIB-4) were also measured.

COc1ccc2cc3[n+](cc2c1OC)CCc1cc2c(cc1-3)OCO2.C[C@H](CCC(=O)[O-])[C@H]1CC[C@H]2[C@@H]3[C@@H](O)C[C@@H]4C[C@H](O)CC[C@]4(C)[C@H]3CC[C@]12C [BUDCA, berberine ursodeoxycholate]
Proportion achieving ≥ 30% relative reduction in LFC (subjects/total) (500 mg BID, 18 weeks): 6/31 | Proportion achieving ≥ 5% Absolute Reduction in LFC (subjects/total) (500 mg BID, 18 weeks): 10/31 | Proportion achieving ≥ 30% relative reduction in LFC (percent) (500 mg BID, 18 weeks): (19%) | Proportion achieving ≥ 5% Absolute Reduction in LFC (percent) (500 mg BID, 18 weeks): (32%) | decrease in mean HbA1c level (500 mg BID, 18 weeks): 0.3% | Absolute Change in LFC (%), Mean (1,000 mg BID, 18 weeks, Efficacy Set, N 27, placebo −2.0): −4.8% | Relative Change in LFC (%), Mean (1,000 mg BID, 18 weeks, Efficacy Set, N 27, placebo −8.3): −24.1% | Absolute Change in LFC (%), LS Mean (1,000 mg BID, 18 weeks, Efficacy Set, placebo −1.8, P 0.011): −4.7% | Relative Change in LFC (%), LS Mean (1,000 mg BID, 18 weeks, Efficacy Set, placebo −8.2, P 0.016): −23.3% | Mean change in LDL-c (mg/dL), Mean (1,000 mg BID, 18 weeks, Modified Efficacy Set, N 25, placebo 0): -16 mg/dL | Mean change in HbA1c (%), Mean (1,000 mg BID, 18 weeks, Modified Efficacy Set, N 26, placebo 0.1): −0.6% | Relative change in GGT (%), Mean (1,000 mg BID, 18 weeks, Modified Efficacy Set, N 26, placebo 5): −29% | Mean change in TG (mg/dL), Mean (1,000 mg BID, 18 weeks, Modified Efficacy Set, N 26, placebo 18): -24 mg/dL | Mean change in GGT (U/L), Mean (1,000 mg BID, 18 weeks, Modified Efficacy Set, N 26, placebo −2): −30 U/L | Mean change in ALT (U/L), Mean (1,000 mg BID, 18 weeks, Modified Efficacy Set, N 26, placebo −3): −19 U/L | Relative change in ALT (%), Mean (1,000 mg BID, 18 weeks, Modified Efficacy Set, N 26, placebo −6): −21% | Mean change in HbA1c (%), LS Mean (1,000 mg BID, 18 weeks, Modified Efficacy Set, placebo 0.1, P 0.005): −0.5% | Mean change in LDL-c (mg/dL), LS Mean (1,000 mg BID, 18 weeks, Modified Efficacy Set, placebo 1, P 0.072): -12 mg/dL | Mean change in TG (mg/dL), LS Mean (1,000 mg BID, 18 weeks, Modified Efficacy Set, placebo 19, P 0.120): -24 mg/dL | Mean change in GGT (U/L), LS Mean (1,000 mg BID, 18 weeks, Modified Efficacy Set, placebo −1, P <0.001): −25 U/L | Mean change in ALT (U/L), LS Mean (1,000 mg BID, 18 weeks, Modified Efficacy Set, placebo −2, P 0.007): −16 U/L | Mean change in Body weight (kg), Mean (1,000 mg BID, 18 weeks, Safety Set, N 27, placebo −1.1): -3.5 kg | Mean change in Body weight (kg), LS Mean (1,000 mg BID, 18 weeks, Safety Set, placebo −1.1, P 0.012): -3.5 kg | average body weight loss (1,000 mg BID, 18 weeks, P=0.012): 3.5 kg | absolute LFC decrease, average (1,000 mg BID, 18 weeks, placebo 2.0%, p=0.011): 4.8% | Proportion achieving ≥ 30% relative reduction in LFC (subjects/total) (1,000 mg BID, 18 weeks): 10/30 | Proportion achieving ≥ 5% Absolute Reduction in LFC (subjects/total) (1,000 mg BID, 18 weeks): 12/30 | relative decrease in LFC (1,000 mg BID, 18 weeks, placebo 8.3%, p=0.016): 24.1% | Proportion achieving ≥ 30% relative reduction in LFC (percent) (1,000 mg BID, 18 weeks): (33%) | Proportion achieving ≥ 5% Absolute Reduction in LFC (percent) (1,000 mg BID, 18 weeks): (40%) | decrease in mean HbA1c level (1,000 mg BID, 18 weeks): 0.6% | proportion of subjects showing improvements in APRI to thresholds associated with less severe fibrosis, vs placebo (1,000 mg, 18 weeks): approximately 2 fold | proportion of subjects showing improvements in FIB-4 to thresholds associated with less severe fibrosis, vs placebo (1000 mg, 18 weeks): approximately 4 fold | reduction in APRI vs placebo (1,000 mg, after 18 weeks (FIG. 6)): approximately 3 fold | reduction in FIB-4 vs placebo (1000 mg, after 18 weeks (FIG. 7)): approximately 3 fold | percentage of subjects achieving ALT reductions vs placebo (18 weeks (FIG. 8)): greater percentage | Pro-C3 vs placebo (18 weeks (FIG. 9)): No significant differences | enhanced liver fibrosis (ELF) score vs placebo (18 weeks (FIG. 9)): No significant differences | change in HOMA-IR (BUDCA therapy, 18 weeks): No significant changes | change in level of HDL-c (BUDCA therapy, 18 weeks): no significant change | change in level of blood glucose (BUDCA therapy, 18 weeks): No significant changes | change in level of insulin (BUDCA therapy, 18 weeks): No significant changes | average decrease in level of LDL-c (high dose group (1,000 mg BID), 18 weeks, P=0.072): 16 mg/dL

Reference: patent US20230112845A1, “COMPOSITIONS OF BERBERINE URSODE[…] METHODS THEREOF FOR TREATING FATTY LIVER DISEASE, DIABETES AND HYPERLIPIDEMIA” (SHENZHEN HIGHTIDE BIOPHARMACEUTICAL LTD., priority 2020, published 2023)
